Experimental data taken from paper PMC8553517 (ACS infectious diseases, 2021).

What was measured:
[1] = test system: intracellular L. donovani; experiment: L. donovani-infected macrophage assay; format: cell-based, Leishmania donovani; settings: for IC50: read-out: IC50 against L. donovani; for inhibition at 50 µM: read-out: Inhibition of parasitemia at 50 μM, 50 μM
[2] = target: recombinant L. donovani CYP51 (Leishmania donovani, UniProt A0A3S7WRS7); experiment: Fluorescence-based L. donovani CYP51 inhibition assay; format: biochemical
[3] = test system: J774 macrophages; experiment: J774 macrophage toxicity assay; format: cell-based, mouse; settings: for IC50: Mus musculus, J774, read-out: IC50 against J774 macrophages
[4] = test system: HepG2 cells; experiment: HepG2 toxicity assay; format: cell-based; settings: for IC50: Homo sapiens, HepG2, 72 h, read-out: IC50 against HepG2
[5] = Microsomal stability, human liver microsomes; format: in vitro ADME; settings: for remaining at 1 h, 3 μM: human, liver microsomes
[6] = Microsomal stability, mouse liver microsomes; format: in vitro ADME; settings: for remaining at 1 h, 3 μM: mouse, liver microsomes
[7] = Leishmania donovani, Macrophage
[8] = substrate 3 μM, LC-MS detection
[9] = Leishmania donovani, Macrophage, intracellular L. donovani, mean ± S.E.M., n=3

Row | IC50 [1, 7] [µM] | IC50 [2] [µM] | SMILES | IC50 [3] [µM] | IC50 [4] [µM] | other results
1 | > 50 | 21 ± 1 | N=C(Nc1ccc(OCCn2ccnc2)cc1)c1ccccn1 [Compound 9a, N-(4-(2-(1H-imidazol-1-yl)ethoxy)phenyl) picolinimidamide] | > 50 | > 50 | –
2 | > 100 | 35 ± 2 | N=C(Nc1ccc(OCCn2cncn2)cc1)c1ccccn1 [Compound 9b, N-(4-(2-(1H-1,2,4-triazol-1-yl)ethoxy)phenyl) picolinimidamide] | > 50 | > 100 | –
3 | > 25 | 22 | N=C(Nc1ccc(OCCCn2ccnc2)cc1)c1ccccn1 [Compound 9c, N-(4-(3-(1H-imidazol-1-yl)propoxy)phenyl) picolinimidamide] | > 50 | > 50 | –
4 | 13 ± 5 | 4.8 ± 0.1 | N=C(Nc1ccc(OCCCCCn2ccnc2)cc1)c1ccccn1 [Compound 9f, N-(4-((5-(1H-imidazol-1-yl)pentyl)oxy)phenyl) picolinimidamide] | > 50 | 42 ± 4 | –
5 | 8.8 ± 0.6 | 1.3 ± 0.1 | N=C(Nc1ccc(OCCCCCCn2ccnc2)cc1)c1ccccn1 [Compound 9g, N-(4-((6-(1H-imidazol-1-yl)hexyl)oxy)phenyl) picolinimidamide] | > 40 | 20 ± 3 | –
6 | 1.3 ± 0.2 | 0.18 ± 0.01 | N=C(Nc1ccc(OCCCCCCCCn2ccnc2)c(Cl)c1)c1ccccn1 [Compound 9i, N-(4-((8-(1H-imidazol-1-yl)octyl)oxy)-3-chlorophenyl) picolinimidamide] | 6.8 ± 0.7 | 7.7 ± 1.5 | Fold more potent as inhibitor of L. donovani CYP51 compared to 9h ([2]; compared to 9h): about 2 fold
7 | 2.1 ± 0.2 | 0.15 ± 0.01 | N=C(Nc1ccc(OCCCCCCCCn2ccnc2)cc1Cl)c1ccccn1 [Compound 9j, N-(4-((8-(1H-imidazol-1-yl)octyl)oxy)-2-chlorophenyl) picolinimidamide] | 8.6 ± 1.2 | 8.6 ± 1.2 | Fold more potent as inhibitor of L. donovani CYP51 compared to 9h ([2]; compared to 9h): about 2 fold
8 | – | 1.9 ± 0.1 | N=C(Nc1ccc(OCCCCCCCCn2cncn2)cc1)c1ccccn1 [Compound 9k, N-(4-((8-(1H-1,2,4-triazol-1-yl)octyl)oxy)phenyl) picolinimidamide] | 36 ± 1 | 32 ± 5 | inhibition at 12.5 µM ([1]; Leishmania donovani, Macrophage, read-out: Inhibition of parasitemia at 12.5 μM, 12.5 μM, intracellular L. donovani, mean ± S.E.M., n=3): ~50%; Decrease in potency against intracellular L. donovani compared with 9h ([1]; compared with 9h): > 10 fold
9 | 1.4 ± 0.2 | 0.22 ± 0.01 | N=C(Nc1ccc(OCCCCCCCCCCn2ccnc2)cc1)c1ccccn1 [Compound 9l, N-(4-((10-(1H-imidazol-1-yl)decyl)oxy)phenyl) picolinimidamide] | 4.9 ± 0.9 | 6.9 ± 1 | Human liver microsome t1/2 [5, 8]: 0.95 h; Mouse liver microsome t1/2 [6, 8]: 1.13 h
10 | 1.7 ± 0.3 | 14 ± 1 | N=C(Nc1ccc(OCCCCCCCCn2cccc2)cc1)c1ccccn1 [Compound 9m, N-(4-((8-(1H-pyrrol-1-yl)octyl)oxy)phenyl) picolinimidamide] | 11 ± 1 | 13 ± 2 | Fold less active as a CYP51 inhibitor than 9h ([2]; compared to 9h): 39 fold
11 | 1.2 ± 0.1 | 0.34 ± 0.01 | N=C(Nc1ccc(OCCCCCCCCn2ccnc2)cc1)c1ccccc1 [Compound 9n, N-(4-((8-(1H-imidazol-1-yl)octyl)oxy)phenyl)benzimidamide] | 0.48 ± 0.02 | 4.9 ± 1 | Increase in potency against J774 cells compared to 9h ([3]; compared to 9h): 22 fold; Increase in HepG2 activity compared to 9h ([4]; compared to 9h): 2.4 fold
12 | 2.2 ± 0.3 | 0.57 ± 0.01 | COc1cc(NC(=N)c2ccccn2)ccc1OCCCCCCCCn1ccnc1 [Compound 17a, N-(4-((8-(1H-imidazol-1-yl)octyl)oxy)3-methoxyphenyl) picolinimidamide] | 16 ± 1 | 23 ± 2 | remaining at 1 h, 3 μM [5]: 100%; remaining at 1 h, 3 μM [6]: 100%
13 | 1.9 ± 0.3 | 0.53 ± 0.02 | CCOc1cc(NC(=N)c2ccccn2)ccc1OCCCCCCCCn1ccnc1 [Compound 17b, N-(4-((8-(1H-imidazol-1-yl)octyl)oxy)3-ethoxyphenyl) picolinimidamide] | 9 ± 1.3 | 13 | –
14 | 0.97 ± 0.07 | 0.29 ± 0.01 | CC(C)Oc1cc(NC(=N)c2ccccn2)ccc1OCCCCCCCCn1ccnc1 [Compound 17c, N-(4-((8-(1H-imidazol-1-yl)octyl)oxy)3-isopropoxyphenyl) picolinimidamide] | 7.8 ± 0.3 | 18 ± 1 | remaining at 1 h, 3 μM [5]: > 80%; remaining at 1 h, 3 μM [6]: 100%
15 | 1.5 ± 0.4 | 0.36 ± 0.01 | COc1cc(OCCCCCCCCn2ccnc2)ccc1NC(=N)c1ccccn1 [Compound 24a, N-(4-((8-(1H-imidazol-1-yl)octyl)oxy)-2-methoxyphenyl) picolinimidamide] | 9.3 ± 0.5 | 16 ± 2 | remaining at 1 h, 3 μM [5]: > 80%; remaining at 1 h, 3 μM [6]: > 80%

Continued, compound first:

Row | SMILES | IC50 [1, 7] [µM] | IC50 [2] [µM] | IC50 [3] [µM] | IC50 [4] [µM] | other results
16 | C[C@@H]1[C@H](O)[C@@H](C)/C=C/C=C/C=C/C=C/C=C/C=C/C=C/[C@H](O[C@@H]2O[C@H](C)[C@@H](O)[C@H](N)[C@@H]2O)C[C@@H]2O[C@](O)(C[C@@H](O)C[C@@H](O)[C@H](O)CC[C@@H](O)C[C@@H](O)CC(=O)O[C@H]1C)C[C@H](O)[C@H]2C(=O)O [Amphotericin B, reference compound] | 0.045 ± 0.003 | – | – | – | –
17 | CC(C)Oc1cc(NC(=N)c2ccccn2)ccc1-c1ccc(-c2ccc(NC(=N)c3ccccn3)cc2OC(C)C)o1 [Compound 1, reference compound] | – | – | – | – | Inhibition of L. donovani CYP51 (in words) ([2]; at concentrations 5–10 times greater than their IC50 against intracellular L. donovani, M.Z. Wang, unpublished observations): weak inhibitors
18 | N=C(Nc1ccc(OCCCCn2ccnc2)cc1)c1ccccn1 [Compound 9d, N-(4-(4-(1H-imidazol-1-yl)butoxy)phenyl) picolinimidamide] | 18 ± 3 | 6.4 ± 0.1 | > 50 | > 20 | –
19 | N=C(Nc1ccc(OCCCCn2cncn2)cc1)c1ccccn1 [Compound 9e, N-(4-(4-(1H-1,2,4-triazol-1-yl)butoxy)phenyl) picolinimidamide] | > 100 | 89 ± 4 | > 50 | > 100 | –
20 | N=C(NCCCCCCCCn1ccnc1)c1ccccn1 [Compound 28, N-(8-(1H-imidazol-1-yl)octyl)picolinimidamide] | > 100 | – | – | > 100 | –
21 | COc1cccc2c1C(=O)c1c(O)c3c(c(O)c1C2=O)C[C@@](O)(C(=O)CO)C[C@@H]3O[C@H]1C[C@H](N)[C@H](O)[C@H](C)O1 [Doxorubicin, reference compound] | – | – | – | 0.2 ± 0.02 | –
22 | OC(Cn1cncn1)(Cn1cncn1)c1ccc(F)cc1F [Fluconazole, fluconazole, reference compound] | – | 0.96 ± 0.03 | – | – | inhibition at 50 µM [1, 9]: 16 ± 3%
23 | CC(=O)N1CCN(c2ccc(OCC3COC(Cn4ccnc4)(c4ccc(Cl)cc4Cl)O3)cc2)CC1 (centres unmarked) [Ketoconazole, ketoconazole, reference compound] | – | 0.048 ± 0.004 | – | – | inhibition at 50 µM [1, 9]: 50 ± 7%
24 | COc1cc([C@@H]2c3cc4c(cc3[C@H](O)[C@H]3COC(=O)[C@H]23)OCO4)cc(OC)c1OC [Podophyllotoxin, reference compound] | – | – | 0.025 ± 0.001 | – | –
25 | CC[C@@H]([C@H](C)O)n1ncn(-c2ccc(N3CCN(c4ccc(OC[C@@H]5CO[C@@](Cn6cncn6)(c6ccc(F)cc6F)C5)cc4)CC3)cc2)c1=O [Posaconazole, posaconazole, reference compound] | – | 0.059 ± 0.001 | – | – | inhibition at 7.5 µM ([1]; Leishmania donovani, Macrophage, read-out: Inhibition of parasitemia at 7.5 μM, 7.5 μM, intracellular L. donovani, mean ± S.E.M., n=3): 47 ± 2%
26 | CCN(CC)CCCC(C)Nc1c2ccc(Cl)cc2nc2ccc(OC)cc12 (centres unmarked) [Quinacrine, reference compound] | – | – | – | 5.5 ± 0.7 | –
